Measured values taken from patent publication US12195470B2, “7-phenoxy-N-(3-azabicyclo[3.2.1]octan-8-yl-6,7-dihydro-5H-pyrrolo[1,2-b][1,2,4]triazol-2-amine derivatives and related compounds as gamma- secretase modulators for the treatment of alzheimer's disease” (Hoffmann-La Roche Inc., priority 2018, dated 2025).

Molecular target: γ-secretase (Homo sapiens, UniProt P49768)
Assay: Cellular γ-secretase assay (inhibition of Aβ42 secretion, AlphaLisa)
Assay type: cell-based
Settings: human neuroglioma H4 cells overexpressing human APP695 Swedish double mutation, 24 h compound incubation
Description: 2.1) Assay Procedure: Cellular γ-Secretase Assay Human neuroglioma H4 cells overexpressing human APP695 with the Swedish double mutation (K595N/M596L) were plated at 30,000 cells/well/100 μL in 96-well plates in IMDM containing 10% FCS, 0.2 mg/L Hygromycin B and incubated at 37° C., 5% CO2. 3-4 h post plating, compounds are a diluted in media and 50 μL is added as 1.5-fold concentrate to achieve the final concentration. Compound incubation is performed for 24 h. Final doses typically range from 4 μM down to 0.0013 μM in half-log steps resulting in an eight-point dose response curve. Appropriate controls using vehicle only and reference compound were applied to this assay. The final concentration of Me2SO was 0.4%. After incubation at 37° C., 5% CO2, the supernatant was subjected to quantification of secreted Aβ42 by the means of an AlphaLisa® assay kit (Human Amyloid beta 1-42 Kit, Perkin Elmer Inc.). 20 μL of the cell culture supernatant was transferred to an assay plate. Then 10 μL of a mixture of the AlphaLisa® coupled capture antibody and the biotinylated detection antibody was added and incubated for 3 h at RT while softly shaking the assay plate. After a further addition of 20 μL of the Donor beads the assay plate was incubated for 30 min at RT and constant shaking without exposure to direct light. The assay plate was then read on a Paradigm AlphaLisa® Reader using the build-in program with excitation at 680 nm and emission at 570 nm. The measured signals were then used to calculate IC50 values for inhibition of Aβ42 secretion by nonlinear regression fit analysis using XLfit 5.3 software (from IDBS Ltd).

SMILES	IC50 [nM]
COc1cc(N2C[C@H]3CC[C@@H](C2)[C@@H]3Nc2nc3n(n2)CC[C@H]3Oc2cc(F)cc(F)c2)cnn1 (single isomer, unassigned) [Example 1]	12.8
COc1cc(N2C[C@H]3CC[C@@H](C2)[C@@H]3Nc2nc3n(n2)CC[C@@H]3Oc2cc(F)cc(F)c2)cnn1 (single isomer, unassigned) [Example 2]	73.8
COc1cc(N2C[C@H]3CC[C@@H](C2)[C@@H]3Nc2nc3n(n2)CCC[C@H]3Oc2cc(F)cc(F)c2)cnn1 (single isomer, unassigned) [Example 9]	10.6
Cc1cc(N2C[C@H]3CC[C@@H](C2)[C@@H]3Nc2nc3n(n2)CCC[C@@H]3Oc2cc(F)cc(Cl)c2)cnn1 (single isomer, unassigned) [Example 14]	62.7
COc1cc(N2C[C@H]3CC[C@@H](C2)[C@@H]3Nc2nc3n(n2)CCC[C@H]3Oc2ccccc2Cl)cnn1 (single isomer, unassigned) [Example 25]	15.7
Cc1cc(N2C[C@H]3CC[C@@H](C2)[C@@H]3Nc2nc3n(n2)CC[C@@H]3Oc2ccc(Cl)cc2)ncn1 (single isomer, unassigned) [Example 28]	71.4
Cc1cc(N2C[C@H]3CC[C@@H](C2)[C@@H]3Nc2nc3n(n2)CC[C@@H]3Oc2cccc(Cl)c2)ncn1 (single isomer, unassigned) [Example 30]	51.9
Cc1cc(N2C[C@H]3CC[C@@H](C2)[C@@H]3Nc2nc3n(n2)CCC[C@H]3Oc2ccc(F)cc2F)ncn1 (single isomer, unassigned) [Example 37]	21.6
Cc1cc(N2C[C@H]3CC[C@@H](C2)[C@@H]3Nc2nc3n(n2)CC[C@H]3Oc2cc(F)cc(F)c2)ncn1 (single isomer, unassigned) [Example 39]	15.6
Cc1cc(N2C[C@H]3CC[C@@H](C2)[C@@H]3Nc2nc3n(n2)CCCC[C@@H]3Oc2ccc(F)c(F)c2F)ncn1 (single isomer, unassigned) [Example 62]	65.8
